A short description of series [1]: Determination of serum liver enzymes (AST, ALT) in association with liver injury. It counts as in vivo, rat. Particulars: 12 weeks. An excerpt: (§1) Male Sprague-Dawley rats (5 weeks of age, 170 g of body weight) were divided into four experimental groups: control diet group, control diet with CF1 group, ethanol (EtOH) diet group and EtOH diet with CF1 group. Control diet group, control diet with CF1 group, EtOH diet group, and EtOH diet with CF1 group were fed, respectively, with Lieber-Decarli control diet, Lieber-Decarli control diet and CF1, Lieber-Decarli liquid diet containing 6% ethanol, and Lieber-Decarli liquid diet containing 6% ethanol and CF1 for 12 weeks. CF1 was dissolved in PEG (polyethylene glycol) 400 and 5% ethanol solution (PEG 400:ethanol=2:1), and administered daily at 10 mg/kg by oral gavage. About 8 hours prior to rats' sacrifice, lipopolysaccharide (LPS) was intraperitoneally injected to increase the liver injury in the amount of 1 mg/kg.
Liver injury was assessed by a biochemical assay of liver enzyme. After the 12 weeks' experiment, the blood samples were obtained from all rats' heart. Serum aspartate transaminase (AST) and alanine transaminase (ALT) values were analyzed for 100 μl of plasma from each blood sample with Hitachi 7050 automatic analyzer (Hitachi, Japan).

The target in series [2] is T1, caspase-8 (Rattus norvegicus, UniProt Q9JHX4).
T1 construct: the activities of caspase-3 and caspase-8 were assayed in cellular extraction of liver tissue; from tissue; host or cells: liver of Sprague-Dawley rats dosed orally with CF1
T1 sequence (Q9JHX4 219-378 limits assumed): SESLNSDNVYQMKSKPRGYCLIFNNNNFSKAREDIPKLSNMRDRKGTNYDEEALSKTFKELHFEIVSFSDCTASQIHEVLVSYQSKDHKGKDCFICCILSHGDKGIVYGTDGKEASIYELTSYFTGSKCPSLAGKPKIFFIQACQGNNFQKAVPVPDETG
T1 sequence (Q9JHX4 389-482 limits assumed): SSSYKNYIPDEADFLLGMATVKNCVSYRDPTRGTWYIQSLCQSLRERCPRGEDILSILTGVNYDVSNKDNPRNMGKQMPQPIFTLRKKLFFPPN
As to the kind of experiment: Fluorometric assay of caspase-8 activity in cellular extraction of liver tissue. It counts as in vivo. To be noted: EtOH diet with CF1 10 mg/kg oral daily, 12 weeks, LPS 1 mg/kg i.p. 8 h before sacrifice; FIG. 2.
Text: as §1
(§2) To investigate the role of caspase in alcohol-induced liver injury, the activities of caspase-3 and caspase-8 were assayed in cellular extraction of liver tissue. The activities of caspase-3 and caspase-8 were assayed by using EnzChek™ Caspase Assay Kit molecular Probes, USA) according to the manufacturer's instructions.

In series [3] the test system is liver. Briefly: Histological assessment of liver (H&E and Masson's trichrome). In kind it is in vivo, rat.
Text: as §1
The extracted livers were fixed by 10% neutral formalin in PBS (phosphate buffered saline). Then, a paraffin section of 4 μm thickness was prepared, and stained with H&E (Hematoxylin & Eosin) and Masson's trichrome. The stained tissue was photographed at 100 times magnification (FIGS. 4A and 4B).

The subject of series [4] is apoptosis of liver cell. Briefly: TUNEL staining of liver tissue (apoptosis of liver cell). It counts as in vivo, rat.
Text: as §1
To investigate apoptosis of liver cell according to alcohol ingestion, TUNEL staining was processed. TUNEL staining was carried out using in situ Cell Death Detection Kit (Roche Diagnostics, Germany) according to the manufacturer's instructions.
Stained tissue was photographed at 100 times magnification (FIG. 5). TUNEL positive cells per field were calculated.

Series [5] has as its target T2, caspase-3 (Rattus norvegicus, UniProt P55213).
T2 construct: the activities of caspase-3 and caspase-8 were assayed in cellular extraction of liver tissue; from tissue; host or cells: liver of Sprague-Dawley rats dosed orally with CF1
T2 sequence (P55213 29-175 limits assumed): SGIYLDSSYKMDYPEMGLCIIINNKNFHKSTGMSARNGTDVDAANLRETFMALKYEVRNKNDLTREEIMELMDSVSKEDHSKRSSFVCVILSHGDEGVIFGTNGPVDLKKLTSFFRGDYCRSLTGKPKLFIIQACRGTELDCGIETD
T2 sequence (P55213 176-277 limits assumed): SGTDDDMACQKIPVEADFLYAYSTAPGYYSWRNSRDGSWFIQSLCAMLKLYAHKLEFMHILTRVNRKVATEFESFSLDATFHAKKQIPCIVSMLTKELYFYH
Briefly: Fluorometric assay of caspase-3 activity in cellular extraction of liver tissue. It counts as in vivo. Particulars: EtOH diet with CF1 10 mg/kg oral daily, 12 weeks, LPS 1 mg/kg i.p. 8 h before sacrifice; FIG. 1.
Text: as §1, §2

As for `CC(C)[C@@]1(C(=O)N[C@H]2CC(=O)O[C@]2(O)CF)CC(c2nccc3ccccc23)=NO1` [CF1, (4S,5S)-5-fluoromethyl-5-hydroxy-4-({[(5R)-5-isopropyl-3-(isoquinolin-1-yl)-4,5-dihydro-5-isoxazolyl]carbonyl}amino)-dihydrofuran-2-one], the “Serum alanine transaminase (ALT)” value in series [1] (Alcohol diet with CF1 10 mg/kg oral daily, alcohol diet group 336±163 IU/L) is on record as 120±10 IU/L. For the same compound, in series [1] (Alcohol diet with CF1 10 mg/kg oral daily, alcohol diet group 454±175 IU/L), the “Serum aspartate transaminase (AST)” value came out at 194±22 IU/L. In series [1] (Control diet with CF1 10 mg/kg oral daily, FIG. 3), the “Serum AST and ALT values compared with control diet group” value is “did not show significant change”. The “caspase-8 activity in liver tissue” value in series [2] is recorded as “decreased to the level of control group”. For the same compound, the “Hepatic fibrosis (Masson's trichrome)” value in series [3] (Alcohol diet with CF1 compared with control diet groups, no statistical significance, FIG. 4B) is “some progression of hepatic fibrosis”. Moreover, in series [3] (Alcohol diet with CF1 vs alcohol diet group, FIG. 4A), the “Fatty liver (H&E staining)” value was “inhibited the increase of fatty liver”. Besides, the “TUNEL positive cells per field” value in series [4] (Alcohol diet with CF1 10 mg/kg oral daily, 12 weeks, alcohol diet group 25.14±9.14, control diet group 10.3±1.9) is listed as 6.4±1.1 TUNEL positive cells/field. For the same compound, the TUNEL positive cells result in series [4] (Control diet with CF1 group, FIGS. 5 and 6) is given as “rarely observed”. For the same compound, the “caspase-3 activity in liver tissue” value in series [5] is “decreased to the level of control group”.
